The source of these data is patent publication US9167821B2 (priority 2009, dated 2015).

For one series, the system named is Peronospora brassicae. Description: Peronospora test (rapeseed)/seed treatment. The format is in vivo. To be noted: 50 g/dt active ingredient, greenhouse, infected leaf area per plant, 0% = control, 100% = no infestation. The method, then:
Peronospora Test (Rapeseed)/Seed Treatment
The test was carried out under greenhouse conditions.
To produce an active ingredient preparation, the active ingredient was dissolved in N-methyl-2-pyrrolidone and the concentrate was diluted with water to the desired concentration. The rapeseeds treated with this solution were sown in 6*6 cm pots which had been filled to a height of 4 cm with a 1:1 mixture of steam-treated soil and sand. Then the plants were cultivated at 10° C.
After 14 days, the plants were inoculated with an aqueous spore suspension of Peronospora brassicae. Subsequently, the plants were placed in a greenhouse at approx. 15° C. and 100% air humidity for 7 days.
The evaluation was effected by assessing the infected leaf area per plant. 0% means an efficiency which corresponds to that of the control, while an efficiency of 100% means that no infestation is observed.

A further series deals with Plasmopara viticola. Briefly: Plasmopara test (grapevine)/protective. The format is in vivo. The conditions noted are these: grapevine plants, protective spray, 10 ppm active ingredient, evaluation 6 days after inoculation, 0% = control, 100% = no infection. As for the experimental part:
Plasmopara Test (Grapevine)/Protective
To prepare an appropriate active ingredient preparation, 1 part by weight of active ingredient is mixed with the stated amounts of solvent and emulsifier, and the concentrate is diluted with water to the desired concentration.
To test for protective efficacy, young plants are sprayed with the active ingredient preparation at the stated application rate. After the spray coating has dried on, the plants are inoculated with an aqueous spore suspension of Plasmopara viticola and then remain in an incubation cabinet at about 20° C. and 100% relative atmospheric humidity for 1 day. The plants are then placed in a greenhouse at approx. 21° C. and approx. 90% air humidity for 4 days. The plants are then moistened and placed in an incubation cabinet for 1 day.
Evaluation follows 6 days after the inoculation.

Another series deals with Phytophthora infestans. Briefly: whole plant or invertebrate. The format is in vivo. The conditions noted are these: for efficacy: tomato plants, protective spray, 10 ppm active ingredient, evaluation 3 days after inoculation, 0% = control, 100% = no infection.
For series [1] the following is noted: for logp [b]: pH 2.7; for logp [c]: pH 7.8; for logp [a]: pH 2.3.
Another series in a line: physchem. To be noted: pH 2.7, logp [b].

With `O=C(Cn1nc(C(F)F)cc1C(F)F)N1CCC(c2nc(C3=NOC(c4ccccc4)C3)cs2)CC1` (racemic) [I-1], the efficiency in the series with Peronospora brassicae stood at 100%. The compound further yielded an efficacy in the series with Plasmopara viticola of 100%. Also, the efficacy in the series on Phytophthora infestans was 95%. Also, in series [1], the “logp [b]” value was 3.17^[b]; and the “logp [c]” value is 3.11^[c].

Consider `O=C(Cn1nc(C(F)F)cc1C(F)F)N1CCC(F)(c2nc(C3=NOC(c4c(F)cccc4F)C3)cs2)CC1` (racemic) [I-6], for which the efficiency in the series on Peronospora brassicae is 100%. For the same compound, the efficacy is given as 100% in the series on Plasmopara viticola and 94% in the series with Phytophthora infestans. Besides, in series [1], the “logp [b]” value was 3.43^[b];. Moreover, in series [1], the “logp [c]” value is 3.34^[c].

As to `C#CCOc1ccc(C2CC(c3csc(C4CCN(C(=O)Cn5nc(C(F)F)cc5C(F)F)CC4)n3)=NO2)cc1` (racemic) [I-22], the efficacy in the series on Plasmopara viticola came to 97%. The efficacy in the series on Phytophthora infestans worked out at 98%. Further, in series [1], the “logp [a]” value was 3.14^[a]; and the “logp [c]” value is 3.08^[c].

Regarding `O=Cc1cccc(C2CC(c3csc(C4CCN(C(=O)Cn5nc(C(F)F)cc5C(F)F)CC4)n3)=NO2)c1` (racemic) [I-23], the efficacy in the series on Plasmopara viticola is listed as 99%; in the series on Phytophthora infestans, 97%. Also, in series [1], the “logp [b]” value is 2.78^[b].

Regarding `CCC#CCOc1ccccc1C1CC(c2csc(C3CCN(C(=O)Cn4nc(C(F)F)cc4C(F)F)CC3)n2)=NO1` (racemic) [I-25], the efficacy with Plasmopara viticola came out at 74%; in the series with Phytophthora infestans it was 95%. In series [1], the “logp [b]” value was 3.91^[b].

In the case of `C#CCOc1ccccc1C1CC(c2csc(C3CCN(C(=O)Cn4nc(C(F)F)cc4C(F)F)CC3)n2)=NO1` (racemic) [I-39], in the series with Plasmopara viticola, the efficacy was found to be 99%. Moreover, the efficacy with Phytophthora infestans is 99%. In series [1], the “logp [a]” value was 3.28^[a] and the “logp [c]” value is 3.23^[c];.

Consider `CS(=O)(=O)Nc1ccc(C2CC(c3csc(C4CCN(C(=O)Cn5nc(C(F)F)cc5C(F)F)CC4)n3)=NO2)cc1` (racemic) [I-40], for which the efficacy with Plasmopara viticola stood at 91%; in the series on Phytophthora infestans, 95%. For the same compound, the “logp [b]” value in series [1] was 2.41^[b].

In the series on Plasmopara viticola, `O=C(Cn1nc(C(F)F)cc1C(F)F)N1CCC(c2nc(C3=NOC(c4cccc(O)c4)C3)cs2)CC1` (racemic) [I-42] yielded an efficacy of 97%. For the same compound, the efficacy in the series on Phytophthora infestans came out at 94%. In series [1], the “logp [a]” value is 2.43^[a] and the “logp [c]” value was 2.45^[c];.

For the compound `O=C(Cn1nc(C(F)F)cc1C(F)F)N1CCC(c2nc(-c3cc(-c4ccccc4)on3)cs2)CC1` [I-3], the efficacy in the series with Plasmopara viticola and in the series on Phytophthora infestans was 100% throughout. Besides, the “logp [b]” value in series [1] is 3.66^[b].

Regarding `CC(=O)c1ccccc1C1CC(c2csc(C3CCN(C(=O)Cn4nc(C(F)F)cc4C(F)F)CC3)n2)=NO1` (centres unmarked) [I-7, 1-(4-{4-[5-(2-Acetylphenyl)-4,5-dihydro-1,2-oxazol-3-yl]-1,3-thiazol-2-yl}piperidin-1-yl)-2-[3,5-bis(difluoromethyl)-1H-pyrazol-1-yl]ethanone], the efficiency in the series on Peronospora brassicae stood at 100%. Also, the pest or weed control at 10 ppm in the series with Plasmopara viticola (Plasmopara viticola, 144 h, read-out: efficacy) worked out at 100%; in the series with Phytophthora infestans (Phytophthora infestans, in Solanum lycopersicum, 72 h, read-out: efficacy), 97%. This compound also returned a chromatographic logP in the series “physchem” of 3.08.

Broadly, the chromatographic logP is a lipophilicity value derived from retention on a column. A high value points to higher lipophilicity.
